According to ChEMBL document CHEMBL1201862, “PubChem BioAssay data set” (2004):
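Interpolation was linear, between the two tested concentrations surrounding the appropriate level; five concentrations were tested over 48 hours in 96-well plates. GI50 is the concentration that inhibits growth by half.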 Activity calls are given as the source filed them. Cut-off read from the data, not from the text of the source: active = GI50 up to about 1.1 µM and inactive = higher.

Experiments:
Assay in all cases: NCI tumour cell line growth inhibition, 48 h
HOP-62 = tested on: HOP-62
KM12 = tested on: KM12
NCI/ADR-RES = tested on: NCI/ADR-RES
RXF 393 = tested on: RXF 393
HCC 2998 = tested on: HCC 2998
ACHN = tested on: ACHN
PC-3 = tested on: PC-3
SNB-19 = tested on: SNB-19
EKVX = tested on: EKVX
SF-268 = tested on: SF-268
OVCAR-4 = tested on: OVCAR-4
UO-31 = tested on: UO-31
CCRF-CEM = tested on: CCRF-CEM
SK-MEL-28 = tested on: SK-MEL-28
HCT-116 = tested on: HCT-116
MOLT-4 = tested on: MOLT-4
HL-60 = tested on: HL-60
RPMI-8226 = tested on: RPMI-8226
SN12C = tested on: SN12C
UACC-62 = tested on: UACC-62
BT-549 = tested on: BT-549
K562 = tested on: K562
Hs-578T = tested on: Hs-578T
MDA-N = tested on: MDA-N
A498 = tested on: A498
HT-29 = tested on: HT-29
U-251 = tested on: U-251
IGROV-1 = tested on: IGROV-1
UACC-257 = tested on: UACC-257
OVCAR-3 = tested on: OVCAR-3
SF-295 = tested on: SF-295
COLO 205 = tested on: COLO 205
MDA-MB-435 = tested on: MDA-MB-435
NCI-H23 = tested on: NCI-H23
DU-145 = tested on: DU-145
SW-620 = tested on: SW-620
MCF7 = tested on: MCF7
SK-MEL-5 = tested on: SK-MEL-5
LOX IMVI = tested on: LOX IMVI
M14 = tested on: M14
HCT-15 = tested on: HCT-15
OVCAR-5 = tested on: OVCAR-5
786-0 = tested on: 786-0
SR = tested on: SR
NCI-H460 = tested on: NCI-H460
CAKI-1 = tested on: CAKI-1
MDA-MB-231 = tested on: MDA-MB-231
TK-10 = tested on: TK-10
Malme-3M = tested on: Malme-3M
NCI-H226 = tested on: NCI-H226
A549 = tested on: A549
OVCAR-8 = tested on: OVCAR-8
SK-OV-3 = tested on: SK-OV-3
HOP-92 = tested on: HOP-92
SNB-75 = tested on: SNB-75
T47D = tested on: T47D
NCI-H522 = tested on: NCI-H522
SK-MEL-2 = tested on: SK-MEL-2

Compound: COC(=O)CSC(=S)Nc1nnc(NC(=S)SCOC(C)=O)n1C(=S)SCC(=O)OC
- GI50 (HOP-62): 6.97 µM (inactive)
- GI50 (KM12): > 100 µM (inactive)
- GI50 (NCI/ADR-RES): > 100 µM (inactive)
- GI50 (RXF 393): > 100 µM (inactive)
- GI50 (HCC 2998): > 100 µM (inactive)
- GI50 (ACHN): > 100 µM (inactive)
- GI50 (PC-3): > 100 µM (inactive)
- GI50 (SNB-19): > 100 µM (inactive)
- GI50 (EKVX): > 100 µM (inactive)
- GI50 (SF-268): > 100 µM (inactive)
- GI50 (OVCAR-4): > 100 µM (inactive)
- GI50 (UO-31): > 100 µM (inactive)
- GI50 (CCRF-CEM): > 100 µM (inactive)
- GI50 (SK-MEL-28): > 100 µM (inactive)
- GI50 (HCT-116): > 100 µM (inactive)
- GI50 (MOLT-4): > 100 µM (inactive)
- GI50 (HL-60): > 100 µM (inactive)
- GI50 (RPMI-8226): > 100 µM (inactive)
- GI50 (SN12C): > 100 µM (inactive)
- GI50 (UACC-62): > 100 µM (inactive)
- GI50 (BT-549): > 100 µM (inactive)
- GI50 (K562): > 100 µM (inactive)
- GI50 (Hs-578T): > 100 µM (inactive)
- GI50 (MDA-N): > 100 µM (inactive)
- GI50 (A498): > 100 µM (inactive)
- GI50 (HT-29): > 100 µM (inactive)
- GI50 (U-251): > 100 µM (inactive)
- GI50 (IGROV-1): > 100 µM (inactive)
- GI50 (UACC-257): > 100 µM (inactive)
- GI50 (OVCAR-3): > 100 µM (inactive)
- GI50 (SF-295): > 100 µM (inactive)
- GI50 (COLO 205): > 100 µM (inactive)
- GI50 (MDA-MB-435): > 100 µM (inactive)
- GI50 (NCI-H23): > 100 µM (inactive)
- GI50 (DU-145): > 100 µM (inactive)
- GI50 (SW-620): > 100 µM (inactive)
- GI50 (MCF7): > 100 µM (inactive)
- GI50 (SK-MEL-5): > 100 µM (inactive)
- GI50 (LOX IMVI): > 100 µM (inactive)
- GI50 (M14): > 100 µM (inactive)
- GI50 (HCT-15): > 100 µM
- GI50 (OVCAR-5): > 100 µM (inactive)
- GI50 (786-0): > 100 µM (inactive)
- GI50 (SR): > 100 µM (inactive)
- GI50 (NCI-H460): > 100 µM (inactive)
- GI50 (CAKI-1): > 100 µM (inactive)

Compound: Cc1cc(S(=O)(=O)O)ccc1/N=N/c1ccc(/N=N/c2c(O)ccc3ccccc23)c(C)c1
- GI50 (HOP-62): > 100 µM (inactive)
- GI50 (KM12): 31.6 µM (inactive)
- GI50 (NCI/ADR-RES): > 100 µM (inactive)
- GI50 (RXF 393): > 100 µM (inactive)
- GI50 (ACHN): 92.9 µM (inactive)
- GI50 (MDA-MB-231): 20.5 µM (inactive)
- GI50 (PC-3): > 100 µM (inactive)
- GI50 (TK-10): 74 µM (inactive)
- GI50 (SNB-19): > 100 µM (inactive)
- GI50 (Malme-3M): > 100 µM (inactive)
- GI50 (EKVX): 82 µM (inactive)
- GI50 (SF-268): 55.3 µM (inactive)
- GI50 (OVCAR-4): 51.2 µM (inactive)
- GI50 (UO-31): 80.4 µM (inactive)
- GI50 (CCRF-CEM): 18.1 µM (inactive)
- GI50 (SK-MEL-28): 67.3 µM (inactive)
- GI50 (HCT-116): 34.2 µM (inactive)
- GI50 (MOLT-4): 49.1 µM (inactive)
- GI50 (RPMI-8226): > 100 µM (inactive)
- GI50 (SN12C): 89.7 µM (inactive)
- GI50 (UACC-62): 28.8 µM (inactive)
- GI50 (BT-549): > 100 µM (inactive)
- GI50 (K562): > 100 µM (inactive)
- GI50 (NCI-H226): 85.3 µM (inactive)
- GI50 (Hs-578T): > 100 µM (inactive)
- GI50 (MDA-N): 50.1 µM (inactive)
- GI50 (HT-29): 70.3 µM (inactive)
- GI50 (U-251): 36.4 µM (inactive)
- GI50 (IGROV-1): 54.7 µM (inactive)
- GI50 (A549): 50.4 µM (inactive)
- GI50 (UACC-257): > 100 µM (inactive)
- GI50 (OVCAR-3): 39.4 µM (inactive)
- GI50 (SF-295): 94.8 µM (inactive)
- GI50 (COLO 205): > 100 µM (inactive)
- GI50 (MDA-MB-435): 37.9 µM (inactive)
- GI50 (NCI-H23): 33.2 µM (inactive)
- GI50 (DU-145): > 100 µM (inactive)
- GI50 (SW-620): 42.3 µM (inactive)
- GI50 (SK-MEL-5): > 100 µM (inactive)
- GI50 (OVCAR-8): 49.8 µM (inactive)
- GI50 (LOX IMVI): 26.9 µM (inactive)
- GI50 (SK-OV-3): > 100 µM (inactive)
- GI50 (HOP-92): 46.7 µM (inactive)
- GI50 (SNB-75): 41.6 µM (inactive)
- GI50 (T47D): > 100 µM (inactive)
- GI50 (M14): > 100 µM (inactive)
- GI50 (HCT-15): 32.1 µM
- GI50 (NCI-H522): 26 µM (inactive)
- GI50 (OVCAR-5): > 100 µM (inactive)
- GI50 (786-0): 21.3 µM (inactive)
- GI50 (CAKI-1): 53.2 µM (inactive)
- GI50 (SK-MEL-2): > 100 µM (inactive)

Compound: O=S(=O)(c1ccccc1)n1c2cc3cccnc3nc2c2cccnc21
- GI50 (HOP-62): 60 µM (inactive)
- GI50 (KM12): > 100 µM (inactive)
- GI50 (NCI/ADR-RES): > 100 µM (inactive)
- GI50 (RXF 393): 27.6 µM (inactive)
- GI50 (HCC 2998): > 100 µM (inactive)
- GI50 (ACHN): 62.7 µM (inactive)
- GI50 (MDA-MB-231): > 100 µM (inactive)
- GI50 (PC-3): 97.9 µM (inactive)
- GI50 (TK-10): > 100 µM (inactive)
- GI50 (SNB-19): 40.1 µM (inactive)
- GI50 (Malme-3M): > 100 µM (inactive)
- GI50 (EKVX): > 100 µM (inactive)
- GI50 (SF-268): 56.8 µM (inactive)
- GI50 (OVCAR-4): 72.3 µM (inactive)
- GI50 (UO-31): > 100 µM (inactive)
- GI50 (CCRF-CEM): 22.4 µM (inactive)
- GI50 (SK-MEL-28): > 100 µM (inactive)
- GI50 (HCT-116): 82.2 µM (inactive)
- GI50 (MOLT-4): 45.3 µM (inactive)
- GI50 (HL-60): 17.9 µM (inactive)
- GI50 (RPMI-8226): 18.5 µM (inactive)
- GI50 (SN12C): 81.3 µM (inactive)
- GI50 (BT-549): > 100 µM (inactive)
- GI50 (K562): 17.3 µM (inactive)
- GI50 (NCI-H226): > 100 µM (inactive)
- GI50 (Hs-578T): > 100 µM (inactive)
- GI50 (MDA-N): 38.2 µM (inactive)
- GI50 (A498): > 100 µM (inactive)
- GI50 (HT-29): 60.4 µM (inactive)
- GI50 (U-251): 40.5 µM (inactive)
- GI50 (IGROV-1): 79.1 µM (inactive)
- GI50 (A549): > 100 µM (inactive)
- GI50 (UACC-257): 54.6 µM (inactive)
- GI50 (OVCAR-3): 38.5 µM (inactive)
- GI50 (SF-295): 49.8 µM (inactive)
- GI50 (COLO 205): 72.9 µM (inactive)
- GI50 (MDA-MB-435): 25.5 µM (inactive)
- GI50 (NCI-H23): 44.9 µM (inactive)
- GI50 (SW-620): 44.7 µM (inactive)
- GI50 (MCF7): 46 µM (inactive)
- GI50 (SK-MEL-5): 54.3 µM (inactive)
- GI50 (OVCAR-8): 74.1 µM (inactive)
- GI50 (LOX IMVI): 42.5 µM (inactive)
- GI50 (SK-OV-3): > 100 µM (inactive)
- GI50 (HOP-92): 21.1 µM (inactive)
- GI50 (SNB-75): 28.4 µM (inactive)
- GI50 (M14): > 100 µM (inactive)
- GI50 (HCT-15): 71.3 µM
- GI50 (NCI-H522): 33.3 µM (inactive)
- GI50 (OVCAR-5): > 100 µM (inactive)
- GI50 (786-0): 71.8 µM (inactive)
- GI50 (SR): 10.9 µM (inactive)
- GI50 (NCI-H460): 36.9 µM (inactive)
- GI50 (CAKI-1): > 100 µM (inactive)
- GI50 (SK-MEL-2): > 100 µM (inactive)
